We go through 3 compounds from US20230094006A1, “PHARMACEUTICAL COMPOSITION CONTAINING MACROLIDE COMPOUND, PRODUCTION METHOD THEREFOR, AND METHOD USING SAME” (priority 2020, published 2023).

As usually defined, the MIC50 is the lowest concentration that inhibits either 50% of growth or 50% of the strains tested, depending on the study. As usually defined, the MIC is the lowest concentration that inhibits growth of the organism.

SMILES strings stand for the structures. Values after ≈ are worked out from the molar mass of the structure shown. Read-outs that look alike come from different tables or passages of the source.

Experiment [1] has as its system Mycobacterium tuberculosis (Mtb). Kind of experiment: Mouse tuberculosis infection model, viable Mycobacterium tuberculosis in lung tissue. Format: in vivo. The following applies: C57BL/6 mice, nasal infection 2×10^4 CFU; 100 mg/kg oral for 6 days from day 4; sacrifice day 10; vs PBS negative control, p<0.001. The procedure: C57BL/6 mice (n=16) were prepared to investigate the anti-tuberculous activity of arenicolide A. Mice were nasally infected with 2×10^4/CFU of Mycobacterium tuberculosis (Mtb), and the mice were randomly divided into two groups (each, n=8). From the 4th day, arenicolide A was orally administered at a dose of 100 mg/body weight kg for 6 days. Phosphate-buffered saline (PBS) was administered as a negative control. Mice were sacrificed on day 10 from the day of infection (FIG. 2A).

Experiment [2] has as its system M. tuberculosis mc2 6230 strain. Kind of experiment: Resazurin microtiter assay (REMA), dose-response curve. It is filed as cell-based. The following applies: Mycobacterium tuberculosis, MC26230STRAIN, 120 h, M. tuberculosis mc2 6230, 7H9 liquid medium, 5 days at 37° C. For orientation: Alamar Blue is a resazurin reagent that responds to reducing activity.
Experiment [3] concerns BCG (bacillus Calmette-Guerin) strain. Format: in vivo, Mycobacterium bovis. The following applies: mice, nasal infection 1×10^6 CFU BCG; 100 mg/kg oral for 6 days from day 4; sacrifice day 10; vs negative control.
The test system of the next experiment is M. abscessus strain. Nature of the experiment: Mouse non-tuberculous Mycobacterium infection model, viable cells in lung tissue. Format: in vivo. The following applies: mice, nasal infection 1×10^7 CFU M. abscessus; 100 mg/kg oral for 5 days from day 3; sacrifice day 7; vs negative control, p<0.001. On the procedure: As described in Example 2-2, 57BL/6 mice were nasally infected with 1×10^7/CFU of M. abscessus strain. From the 3rd day, arenicolide A was orally administered at a dose of 100 mg/body weight kg for 5 days. As a negative control, 2.5% (v/v) DMSO and 2.5% (v/v) ethanol were administered. Mice were sacrificed on day 7 from the day of infection. The number of viable tubercle bacilli in the lung tissue was investigated, and the results are shown in FIG. 3 (each, n=6, ***: p<0.001).

For the next experiment, the system named is M. tuberculosis. Nature of the experiment: Resazurin microtiter MIC, arenicolide A and ethambutol alone and combined. The following applies: Mycobacterium tuberculosis, 120 h. It is filed as cell-based.
In experiment [4] the test system is Mycobacterium tuberculosis Mtb H37Rv strain. Nature of the experiment: Resazurin microtiter assay (REMA), standard strain.
Method: MIC was measured by using a resazurin microtiter assay (REMA). Briefly, 100 μl of 7H9 liquid medium was added to each well of a 96-well microtiter plate, and two-fold serial dilutions of antibiotics were directly added to each well. Plates were covered and incubated for 5 days at 37° C. Resazurin (0.01% (w/v)) was added to each well and the plates were incubated overnight. Fluorescence intensity was measured by using a SpectraMax M3 Multi-Mode Microplate Reader (Molecular Devices, CA, USA) (ex. 560/em. 590 nm).

For `CCC[C@H](O)[C@@H](OC)[C@H]1O[C@]1(C)[C@@H](O)C/C=C/[C@@H]1OC(=O)/C=C/C=C/[C@@H](OC)[C@H](O)/C=C/C(C)=C/[C@@H](C)CCC[C@@H](OC)C(O)/C=C/C(C)=C/[C@@H](C)[C@H](O)[C@H]1OC` (some centres unmarked) [arenicolide A], in experiment [1], the “number of viable Mycobacterium tuberculosis in the lung tissue” value is listed as “significantly reduced”. The MIC50 in experiment [2] is around 24.6 µM (≈ 19.8 µg/mL); in experiment [4] it was around 6.9 µM (≈ 5.55 µg/mL). Also, the “inhibitory activity against BCG bacteria (viable cells in lung tissue)” value in experiment [3] is recorded as “effective inhibitory activity”. Further, the “number of viable cells in the lung tissue” value in the experiment on M. abscessus strain is reported as “significantly decreased”. Also, the MIC in the experiment with M. tuberculosis is 0.78 µM.
`CCC[C@@H]1O[C@@](C)([C@@H](O)C/C=C/[C@@H]2OC(=O)/C=C/C=C/[C@@H](OC)[C@H](O)/C=C/C(C)=C/C(C)CCC[C@@H](OC)[C@H](O)/C=C/C(C)=C/[C@@H](C)[C@H](O)[C@H]2OC)[C@H](O)[C@@H]1OC` (some centres unmarked) [arenicolide C]: in experiment [3], the “inhibitory activity against BCG bacteria (viable cells in lung tissue)” value is on record as “effective inhibitory activity”.
With `CC[C@@H](CO)NCCN[C@@H](CC)CO` [ethambutol, reference compound], the MIC in the experiment with M. tuberculosis (administered alone, Middlebrook 7H9 with ADC, 5 days at 37° C., resazurin, read-out: MIC) amounted to 3.2 µM.
